Assay results: ChEMBL document CHEMBL4706545, “Antiproliferative effect of mitochondria-targeting allobetulin 1,2,3-triazolium salt derivatives and their mechanism of inducing apoptosis of cancer cells” (Eur J Med Chem, 2020)
One block for each compound: values may come before it. The source made the active and inactive calls. The rule behind the calls is not given here.

What was measured:
ECa-109 cell line [1] = test: Induction of ROS-mediated apoptosis in human ECa-109 cells assessed as viable cells at 4 uM incubated for 48 hrs in presence of NAC by annexin V-PE and 7-AAD staining based flow cytometry analysis (reference value: 94 %); format: functional; settings: read-out: Activity
ECa-109 cell line [2] = test: Induction of mitochondrial membrane potential disruption in human ECa-109 cells incubated for 48 hrs by JC-1 dye based flow cytometry analysis; settings: Mitochondria, dose 1-4 µM
ECa-109 cell line [3] = test: Induction of ROS-mediated apoptosis in human ECa-109 cells assessed as early apoptotic cells at 2 uM incubated for 48 hrs by annexin V-PE and 7-AAD staining based flow cytometry analysis (reference value: 2.70 %); format: functional
ECa-109 cell line [4] = test: Induction of ROS-mediated apoptosis in human ECa-109 cells assessed as late apoptotic cells at 2 uM incubated for 48 hrs by annexin V-PE and 7-AAD staining based flow cytometry analysis (reference value: 3.89 %); format: functional
ECa-109 cell line [5] = test: Induction of ROS-mediated apoptosis in human ECa-109 cells assessed as necrotic cells at 2 uM incubated for 48 hrs by annexin V-PE and 7-AAD staining based flow cytometry analysis (reference value: 0.729 %); format: functional
ECa-109 cell line [6] = test: Induction of ROS-mediated apoptosis in human ECa-109 cells assessed as necrotic cells at 2 uM incubated for 48 hrs in presence of NAC by annexin V-PE and 7-AAD staining based flow cytometry analysis (reference value: 1.09 %); format: functional
ECa-109 cell line [7] = test: Induction of cell cycle arrest in human ECa-109 cells assessed as accumulation in G2/M phase at 1 uM incubated for 48 hrs by PI staining based flow cytometry analysis (reference value: 8.39 %); format: functional
ECa-109 cell line [8] = test: Induction of cell cycle arrest in human ECa-109 cells assessed as accumulation in S phase at 2 uM incubated for 48 hrs by PI staining based flow cytometry analysis (reference value: 39.33 %); format: functional
ECa-109 cell line [9] = test: Induction of apoptosis in human ECa-109 cells assessed as decrease in caspase-3 incubated for 48 hrs by Western blot analysis; format: functional, cell-based; settings: dose 1-4 µM
ECa-109 cell line [10] = test: Induction of apoptosis in human ECa-109 cells assessed as upregulation of Bax incubated for 48 hrs by Western blot analysis; format: functional, cell-based; settings: dose 1-4 µM
[11] = Selectivity index, ratio of IC50 for cytotoxicity against human HL7702 cells to IC50 for cytotoxicity against human SGC-7901 cells
SGC-7901 [12] = test: Induction of apoptosis in human SGC-7901 cells assessed as nuclear fragmentation at 1 to 4 uM incubated for 48 hrs by Hoechst staining based fluorescence microscopic analysis; format: functional, cell-based; settings: dose 1-4 µM
SGC-7901 [13] = test: Induction of apoptosis in human SGC-7901 cells assessed as early apoptotic cells at 1 uM incubated for 48 hrs by annexin-V-FITC and PI staining based fluorescence microscopic analysis (reference value: 1.87 %); format: functional
SGC-7901 [14] = test: Induction of apoptosis in human SGC-7901 cells assessed as viable cells at 4 uM incubated for 48 hrs by annexin-V-FITC and PI staining based fluorescence microscopic analysis (reference value: 93.8 %); format: functional; settings: read-out: Activity
SGC-7901 [15] = test: Induction of apoptosis in human SGC-7901 cells assessed as late apoptotic cells at 4 uM incubated for 48 hrs by annexin-V-FITC and PI staining based fluorescence microscopic analysis (reference value: 3.87 %); format: functional
SGC-7901 [16] = test: Induction of apoptosis in human SGC-7901 cells assessed as necrotic cells at 4 uM incubated for 48 hrs by annexin-V-FITC and PI staining based fluorescence microscopic analysis (reference value: 1.03 %); format: functional
SGC-7901 [17] = test: Induction of apoptosis in human SGC-7901 cells assessed as late apoptotic cells incubated for 48 hrs by annexin-V-FITC and PI staining based fluorescence microscopic analysis; format: functional, cell-based; settings: dose 1-4 µM
SGC-7901 [18] = test: Induction of ROS-mediated apoptosis in human SGC-7901 cells assessed as late apoptotic cells at 2 uM incubated for 48 hrs by annexin V-PE and 7-AAD staining based flow cytometry analysis (reference value: 3.82 %); format: functional
SGC-7901 [19] = test: Induction of ROS-mediated apoptosis in human SGC-7901 cells assessed as viable cells at 4 uM incubated for 48 hrs by annexin V-PE and 7-AAD staining based flow cytometry analysis (reference value: 93.6 %); format: functional; settings: read-out: Activity
SGC-7901 [20] = test: Induction of ROS-mediated apoptosis in human SGC-7901 cells assessed as early apoptotic cells at 4 uM incubated for 48 hrs by annexin V-PE and 7-AAD staining based flow cytometry analysis (reference value: 1.89 %); format: functional
SGC-7901 [21] = test: Induction of ROS-mediated apoptosis in human SGC-7901 cells assessed as late apoptotic cells at 4 uM incubated for 48 hrs by annexin V-PE and 7-AAD staining based flow cytometry analysis (reference value: 3.82 %); format: functional
SGC-7901 [22] = test: Induction of ROS-mediated apoptosis in human SGC-7901 cells assessed as necrotic cells at 4 uM incubated for 48 hrs by annexin V-PE and 7-AAD staining based flow cytometry analysis (reference value: 0.733 %); format: functional
SGC-7901 [23] = test: Induction of ROS-mediated apoptosis in human SGC-7901 cells assessed as viable cells at 1 uM incubated for 48 hrs in presence of NAC by annexin V-PE and 7-AAD staining based flow cytometry analysis (reference value: 94.8 %); format: functional; settings: read-out: Activity
SGC-7901 [24] = test: Induction of ROS-mediated apoptosis in human SGC-7901 cells assessed as early apoptotic cells at 1 uM incubated for 48 hrs in presence of NAC by annexin V-PE and 7-AAD staining based flow cytometry analysis (reference value: 1.15 %); format: functional
SGC-7901 [25] = test: Induction of ROS-mediated apoptosis in human SGC-7901 cells assessed as necrotic cells at 1 uM incubated for 48 hrs in presence of NAC by annexin V-PE and 7-AAD staining based flow cytometry analysis (reference value: 0.623 %); format: functional
SGC-7901 [26] = test: Induction of ROS-mediated apoptosis in human SGC-7901 cells assessed as viable cells at 2 uM incubated for 48 hrs in presence of NAC by annexin V-PE and 7-AAD staining based flow cytometry analysis (reference value: 94.8 %); format: functional; settings: read-out: Activity
SGC-7901 [27] = test: Induction of ROS-mediated apoptosis in human SGC-7901 cells assessed as late apoptotic cells at 2 uM incubated for 48 hrs in presence of NAC by annexin V-PE and 7-AAD staining based flow cytometry analysis (reference value: 3.45 %); format: functional
SGC-7901 [28] = test: Induction of ROS-mediated apoptosis in human SGC-7901 cells assessed as viable cells at 4 uM incubated for 48 hrs in presence of NAC by annexin V-PE and 7-AAD staining based flow cytometry analysis (reference value: 94.8 %); format: functional; settings: read-out: Activity
SGC-7901 [29] = test: Induction of cell cycle arrest in human SGC-7901 cells assessed as accumulation in G0/G1 phase at 1 uM incubated for 48 hrs by PI staining based flow cytometry analysis (reference value: 57.39 %); format: functional
SGC-7901 [30] = test: Induction of cell cycle arrest in human SGC-7901 cells assessed as accumulation in G2/M phase at 1 uM incubated for 48 hrs by PI staining based flow cytometry analysis (reference value: 11.48 %); format: functional
SGC-7901 [31] = test: Induction of apoptosis in human SGC-7901 cells assessed as decrease in PARP incubated for 48 hrs by Western blot analysis; format: functional, cell-based; settings: dose 1-4 µM
SGC-7901 [32] = test: Induction of apoptosis in human SGC-7901 cells assessed as downregulation of Bcl-2 incubated for 48 hrs by Western blot analysis; format: functional, cell-based; settings: dose 1-4 µM

- Activity (ECa-109 cell line [2]): Dose-dependent effect
SMILES: COc1ccccc1Cn1n[n+](C)c2c1C(C)(C)[C@@H]1CC[C@]3(C)[C@H](CC[C@@H]4[C@H]5[C@H]6OC[C@@]5(CCC6(C)C)CC[C@]43C)[C@@]1(C)C2.[I-]
- viability at 4 µM (ECa-109 cell line [1]): 13.8%
- Activity (ECa-109 cell line [3]): 11.5%
- Activity (ECa-109 cell line [4]): 28.7%
- Activity (ECa-109 cell line [5]): 4.87%
- Activity (ECa-109 cell line [6]): 5.48%
- Activity (ECa-109 cell line [7]): 10.81%
- Activity (ECa-109 cell line [8]): 40.19%
- Activity (ECa-109 cell line [9]): Dose-dependent effect
- Activity (ECa-109 cell line [10]): Dose-dependent effect

SMILES: C[n+]1nn(Cc2c(F)cccc2Cl)c2c1C[C@]1(C)[C@H]3CC[C@@H]4[C@H]5[C@H]6OC[C@@]5(CCC6(C)C)CC[C@@]4(C)[C@]3(C)CC[C@H]1C2(C)C.[I-]
- Ratio IC50 [11]: 2.08
- Activity (SGC-7901 [12]): Active
- Activity (SGC-7901 [13]): 10.7%
- viability at 4 µM (SGC-7901 [14]): 0.494%
- Activity (SGC-7901 [15]): 97.3%
- Activity (SGC-7901 [16]): 0.158%
- Activity (SGC-7901 [17]): Dose-dependent effect
- Activity (SGC-7901 [18]): 12.3%
- viability at 4 µM (SGC-7901 [19]): 0.152%
- Activity (SGC-7901 [20]): 0.199%
- Activity (SGC-7901 [21]): 99.6%
- Activity (SGC-7901 [22]): 0.028%
- viability at 1 µM (SGC-7901 [23]): 87.7%
- Activity (SGC-7901 [24]): 6.13%
- Activity (SGC-7901 [25]): 1.21%
- viability at 2 µM (SGC-7901 [26]): 71.3%
- Activity (SGC-7901 [27]): 8.6%
- viability at 4 µM (SGC-7901 [28]): 15.3%
- Activity (SGC-7901 [29]): 80.42%
- Activity (SGC-7901 [30]): 5.39%
- Activity (SGC-7901 [31]): Dose-dependent effect
- Activity (SGC-7901 [32]): Dose-dependent effect
